Data as given in patent US20220168193A1, “FLEXIBLE METAL PATCH HAVING ANTIOXIDANT ACTIVITY AND BRIGHTENING EFFECT AND METHOD FOR USING SAME” (LABNPEOPLE CO., LTD., priority 2019, published 2022).

Assay: DPPH free radical scavenging activity test
Format: biochemical
Details: for DPPH free radical scavenge activity (%) (mean ± standard deviation): 0.2 mM DPPH 1:1, 30 min
Procedure: To evaluate the DPPH free radical scavenging activity of the biodegradable metal of the present invention, samples were provided to the Korea Testing & Research Institute and the test thereof was performed in a manner described below by the Korea Testing & Research Institute at the request of the inventors.
a. Test substance • Magnesium patch with a purity of 95% or more (See FIG. 1 in which the patch is provided with microneedles that are not bent). • The sample used for the test is a sheet shape (dimensions: 2.6 mm×2.4 mm, thickness 0.1 t) made of Mg with a purity of 95% or more and including unavoidable impurities generated during manufacturing thereof.
b. Positive control • L-ascorbic acid: Sigma-Aldrich Corporation, Lot No. SLBR2586V
c. Etc. • 2,2-Diphenyl-1-picrylhydrazyl (DPPH): Sigma-Aldrich Corporation, Lot No. STBH0044 • Methanol: JINSEI, Lot No. 2016G2012
a. Preparation of test substance: The provided test substance was used without conversion of purity. Methanol was used to adjust the concentration.
After weighing L-ascorbic acid, it was prepared to have a predetermined concentration using methanol.
DPPH was prepared to have a concentration of 0.2 mM using methanol.
In a 96-well plate, each of the preparations (test substance and positive control substance) having different concentrations was mixed with a combination of 0.2 mM DPPH and methanol in a mixing ratio of 1:1.
After reacting at room temperature for 30 minutes in a light-shielding state, centrifugation was performed to obtain a supernatant, and absorbance was measured at a wavelength of 517 nm.
The free radical scavenger activity (%) of DPPH was calculated using Equation 1 below.
DPPH radical scavenging activity(%)=1−(A/B)×100 <Equation 1>
In Equation 1, A is the absorbance of the test substance, and B is the absorbance of the blank sample.
The result of each test was measured three times to obtain the mean value and standard deviation, and statistical analysis was performed using the SPSS statistical program (Ver. 19.0). First, after performing Levene's test, a one-way ANOVA test was performed. When significance was confirmed among the test groups, a post-hoc test was performed depending on the presence or absence of homogeneity of variances (when the variances are homogeneous, Duncan's multiple test was performed whereas when the variances were heterogeneous, Dunnett's T3 was performed).

In the case of `O=C1O[C@H]([C@@H](O)CO)C(O)=C1O` [L-ascorbic acid], the “DPPH free radical scavenge activity (%) (mean ± standard deviation)” value (concentration 0.0005%) is reported as 20.96%, the “DPPH free radical scavenge activity (%) (mean ± standard deviation)” value (concentration 0.001%) is reported as 40.38% and the “DPPH free radical scavenge activity (%) (mean ± standard deviation)” value (concentration 0.0015%) is reported as 65.57%. For the same compound, the “DPPH free radical scavenge activity (%) (mean ± standard deviation)” value (concentration 0.002%) was 83.24% and the “IC50 (concentration at which 50% activity is exhibited), DPPH scavenging” value (methanol solution) was 0.0012%.
